Measured values as given in patent US20210309649A1, “SUBSTITUTED GLUTARIMIDE DERIVATIVES” (BASF SE, priority 2018, published 2021).

How the values were obtained:
Assay type in all cases: in vivo
[1] = system: Heliothis virescens; test: Tobacco budworm (Heliothis virescens) insect diet test; conditions: 120 h, read-out: mortality in comparison with untreated controls
Method: For evaluating control of tobacco budworm (Heliothis virescens) the test unit consisted of 96-well-microtiter plates containing an insect diet and 15-25 H. virescens eggs.
The compounds were formulated using a solution containing 75% v/v water and 25% v/v DMSO. Different concentrations of formulated compounds were sprayed onto the insect diet at 10 μl, using a custom built micro atomizer, at two replications.
After application, microtiter plates were incubated at about 28±1° C. and about 80±5% relative humidity for 5 days. Egg and larval mortality was then visually assessed.

[2] = system: Nezara viridula; test: Green soldier stink bug (Nezara viridula) soybean pod spray test; conditions: 120 h, read-out: mortality in comparison with untreated controls
Method: The active compound was dissolved at the desired concentration in a mixture of 1:1 (vol:vol) distilled water:acetone. Surfactant (Kinetic HV) was added at a rate of 0.01% (vol/vol). The test solution was prepared at the day of use. Soybean pods were placed in glass Petri dishes lined with moist filter paper and inoculated with ten late 3rd instar N. viridula. Using a hand atomizer, approximately 2 ml solution is sprayed into each Petri dish. Assay arenas were kept at about 25° C. Percent mortality was recorded after 5 days.

[3] = system: Megoura viciae; test: Vetch aphid (Megoura viciae) leaf disk test; conditions: foliar, 120 h, read-out: mortality in comparison with untreated controls
Method: For evaluating control of vetch aphid (Megoura viciae) through contact or systemic means the test unit consisted of 24-well-microtiter plates containing broad bean leaf disks.
The compounds were formulated using a solution containing 75% v/v water and 25% v/v DMSO. Different concentrations of formulated compounds were sprayed onto the leaf disks at 2.5 μl, using a custom built micro atomizer, at two replications.
After application, the leaf disks were air-dried and 5-8 adult aphids placed on the leaf disks inside the microtiter plate wells. The aphids were then allowed to suck on the treated leaf disks and incubated at about 23±1° C. and about 50±5% relative humidity for 5 days. Aphid mortality and fecundity was then visually assessed.

[4] = system: Anthonomus grandis; test: Boll weevil (Anthonomus grandis) insect diet test; conditions: 120 h, read-out: mortality in comparison with untreated controls
Method: For evaluating control of boll weevil (Anthonomus grandis) the test unit consisted of 96-well-microtiter plates containing an insect diet and 5-10 A. grandis eggs.
The compounds were formulated using a solution containing 75% v/v water and 25% v/v DMSO. Different concentrations of formulated compounds were sprayed onto the insect diet at 5 μl, using a custom built micro atomizer, at two replications.
After application, microtiter plates were incubated at about 25±1° C. and about 75±5% relative humidity for 5 days. Egg and larval mortality was then visually assessed.

[5] = system: Nephotettix virescens; test: Rice green leafhopper (Nephotettix virescens) rice seedling spray test; conditions: 72 h, read-out: mortality in comparison with untreated controls
Method: Rice seedlings were cleaned and washed 24 hours before spraying. The active compounds were formulated in 1:1 acetone:water (vol:vol), and 0.01% vol/vol surfactant (Kinetic HV) was added. Potted rice seedlings were sprayed with 5-6 ml test solution, air dried, covered with Mylar cages and inoculated with 10 adults. Treated rice plants were kept at about 28-29° C. and relative humidity of about 50-60%. Percent mortality was recorded after 72 hours.

[6] = system: Euschistus heros; test: Neotropical brown stink bug (Euschistus heros) soybean pod spray test; conditions: 120 h, read-out: mortality in comparison with untreated controls
Method: (§1) The active compound was dissolved at the desired concentration in a mixture of 1:1 (vol:vol) distilled water:acetone. Surfactant (Kinetic HV) was added at a rate of 0.01% (vol/vol). The test solution was prepared at the day of use.
Soybean pods were placed in microwavable plastic cups and inoculated with ten adult stage E. heros. Using a hand atomizer, approximately 1 ml solution is sprayed into each cup, insects and food present. A water source was provided (cotton wick with water). Each treatment was replicated 2-fold. Assay arenas were kept at about 25° C. Percent mortality was recorded after 5 days.

[7] = system: Halyomorpha halys; test: Brown marmorated stink bug (Halyomorpha halys) spray test; conditions: in Glycine max, 120 h, read-out: mortality in comparison with untreated controls
Method: as §1
Row peanuts and soybean seeds were placed into microwavable plastic cups and inoculated with five adult stage H. halys. Using a hand atomizer, approximately 1 ml solution is sprayed into each cup, insects and food present. A water source was provided (cotton wick with water).
Each treatment is replicated 4-fold. Assay arenas are kept at about 25° C. Percent mortality was recorded after 5 days.

[8] = system: Plutella xylostella; test: Diamond back moth (Plutella xylostella) cabbage leaf dip test; conditions: foliar, 72 h, read-out: mortality in comparison with untreated controls
Method: The active compound was dissolved at the desired concentration in a mixture of 1:1 (vol:vol) distilled water:aceteone. Surfactant (Kinetic HV) was added at a rate of 0.01% (vol/vol). The test solution was prepared at the day of use.
Leaves of cabbage were dipped in test solution and air-dried. Treated leaves were placed in petri dishes lined with moist filter paper and inoculated with ten 3rd instar larvae. Mortality was recorded 72 hours after treatment. Feeding damages were also recorded using a scale of 0-100%.

[9] = system: Tetranychus kanzawai; test: Red spider mite (Tetranychus kanzawai) cowpea bean spray test; conditions: 72 h, read-out: mortality in comparison with untreated controls
Method: The active compound was dissolved at the desired concentration in a mixture of 1:1 (vol:vol) distilled water:acetone. Add surfactant (Kinetic HV) was added at a rate of 0.01% (vol/vol). The test solution was prepared at the day of use.
Potted cowpea beans of 4-5 days of age were cleaned with tap water and sprayed with 1-2 ml of the test solution using air driven hand atomizer. The treated plants were allowed to air dry and afterwards inoculated with 30 or more mites by clipping a cassava leaf section from rearing population. Treated plants were placed inside a holding room at about 25-27° C. and about 50-60% relative humidity. Percent mortality was assessed 72 hours after treatment.

[10] = system: Dichromothrips corbetti; test: Orchid thrips (Dichromothrips corbetti) floral-immersion test; conditions: 72 h, read-out: mortality in comparison with untreated controls
Method: Dichromothrips corbetti adults used for bioassay were obtained from a colony maintained continuously under laboratory conditions. For testing purposes, the test compound is diluted in a 1:1 mixture of acetone:water (vol:vol), plus Kinetic HV at a rate of 0.01% v/v.
Thrips potency of each compound was evaluated by using a floral-immersion technique. All petals of individual, intact orchid flowers were dipped into treatment solution and allowed to dry in Petri dishes. Treated petals were placed into individual re-sealable plastic along with about 20 adult thrips. All test arenas were held under continuous light and a temperature of about 28° C. for duration of the assay. After 3 days, the numbers of live thrips were counted on each petal. The percent mortality was recorded 72 hours after treatment.

[11] = system: Myzus persicae; test: Green peach aphid (Myzus persicae) systemic artificial diet test; conditions: 72 h, read-out: mortality in comparison with untreated controls
Text: For evaluating control of green peach aphid (Myzus persicae) through systemic means the test unit consisted of 96-well-microtiter plates containing liquid artificial diet under an artificial mem brane.
The compounds were formulated using a solution containing 75% v/v water and 25% v/v DMSO. Different concentrations of formulated compounds were pipetted into the aphid diet, using a custom built pipetter, at two replications.
After application, 5-8 adult aphids were placed on the artificial membrane inside the microtiter plate wells. The aphids were then allowed to suck on the treated aphid diet and incubated at about 23±1° C. and about 50±5% relative humidity for 3 days. Aphid mortality and fecundity was then visually assessed.

[12] = system: Spodoptera eridania; test: Southern armyworm (Spodoptera eridania) lima bean foliar spray test; conditions: 96 h, read-out: mortality in comparison with untreated controls
Method: The active compounds were formulated in cyclohexanone as a 10,000 ppm solution supplied in tubes. The tubes were inserted into an automated electrostatic sprayer equipped with an atomizing nozzle and they served as stock solutions for which lower dilutions were made in 50% acetone:50% water (v/v). A nonionic surfactant (Kinetic®) was included in the solution at a volume of 0.01% (v/v).
Lima bean plants (variety Sieva) were grown 2 plants to a pot and selected for treatment at the 1st true leaf stage. Test solutions were sprayed onto the foliage by an automated electrostatic plant sprayer equipped with an atomizing spray nozzle. The plants were dried in the sprayer fume hood and then removed from the sprayer. Each pot was placed into perforated plastic bags with a zip closure. About 10 to 11 armyworm larvae were placed into the bag and the bags zipped closed. Test plants were maintained in a growth room at about 25° C. and about 20-40% relative humidity for 4 days, avoiding direct exposure to fluorescent light (24 hour photoperiod) to prevent trapping of heat inside the bags. Mortality and reduced feeding were assessed 4 days after treatment, compared to untreated control plants.

Cc1cc(C2=NOC(c3cc(Cl)cc(Cl)c3)(C(F)(F)F)C2)ccc1C(=O)N[C@@H]1CCC(=O)N(CC(F)F)C1=O (stereo partly drawn) [Compound 1-18, 4-[5-(3,5-dichlorophenyl)-5-(trifluoromethyl)-4H-isoxazol-3-yl]-N-[(3R)-1-(2,2-difluoroethyl)-2,6-dioxo-3-piperidyl]-2-methyl-benzamide]
> 75%: mortality at 2500 ppm [1] | mortality at 300 ppm [2] | mortality at 2500 ppm [3] | mortality at 2500 ppm [4] | mortality at 300 ppm [5] | mortality at 500 ppm [6] | mortality at 100 ppm [7] | mortality at 300 ppm [8] | mortality at 300 ppm [9] | mortality at 300 ppm [10] | mortality at 2500 ppm [11]

CN1C(=O)CC[C@@H](NC(=O)c2ccc(C3=NOC(c4cc(Cl)c(F)c(Cl)c4)(C(F)(F)F)C3)cc2Cl)C1=O (stereo partly drawn) [Compound 1-1, 2-chloro-4[5-(3,5-dichloro-4-fluoro-phenyl)-5-(trifluoromethyl)-4H-isoxazol-3-yl]-N-[(3R)-1-methyl-2,6-dioxo-3-piperidyl]benzamide]
> 75%: mortality at 2500 ppm [1] | mortality at 300 ppm [2] | mortality at 2500 ppm [3] | mortality at 10 ppm [12] | mortality at 2500 ppm [4] | mortality at 300 ppm [5] | mortality at 500 ppm [6] | mortality at 100 ppm [7] | mortality at 300 ppm [8] | mortality at 300 ppm [9] | mortality at 300 ppm [10] | mortality at 2500 ppm [11]
